Results published in PMC3617544 (The Open Medicinal Chemistry Journal, 2013).

Assays:
[1] = target: T1, BACE-1 (Homo sapiens, UniProt P56817); assay: BACE-1 enzyme assay; type: biochemical
[2] = target: T1, BACE-1; assay: BACE-1 cell assay; conditions: HEK293, read-out: percent inhibition of BACE-1 in cell-based assay

T1 sequence (P56817 46-501): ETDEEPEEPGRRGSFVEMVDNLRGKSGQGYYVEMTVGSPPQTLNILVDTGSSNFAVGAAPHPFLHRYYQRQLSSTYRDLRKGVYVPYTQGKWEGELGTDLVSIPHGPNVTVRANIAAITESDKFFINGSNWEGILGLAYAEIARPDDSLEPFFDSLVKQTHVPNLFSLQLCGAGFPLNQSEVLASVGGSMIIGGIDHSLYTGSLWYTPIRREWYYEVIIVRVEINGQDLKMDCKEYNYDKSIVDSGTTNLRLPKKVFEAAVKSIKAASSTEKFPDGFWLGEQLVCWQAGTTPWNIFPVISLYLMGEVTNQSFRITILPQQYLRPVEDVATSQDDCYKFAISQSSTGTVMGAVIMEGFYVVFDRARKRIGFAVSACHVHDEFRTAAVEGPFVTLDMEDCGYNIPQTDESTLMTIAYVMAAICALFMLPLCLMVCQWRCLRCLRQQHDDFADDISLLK

For `CO[C@H](C[C@H](O)[C@@H](N)COc1cccc(OCc2ccccc2)c1)C(=O)N[C@H](C(=O)NCc1ccccc1)C(C)C` [Compound 17, (2R,4S,5S)-5-Amino-6-(3-benzyloxy-phenoxy)-4-hydroxy-2-methoxy-hexanoic acid ((S)-1-benzylcarbamoyl-2-methyl-propyl)-amide], the IC50 [1] was over 10 µM.
`CO[C@H](C[C@H](O)[C@H](COc1ccc(OCc2ccccc2)cc1)NC(=O)c1cccc(N(C)S(C)(=O)=O)c1)C(=O)N[C@H](C(=O)NCc1ccccc1)C(C)C` [Compound 19, N-[(1S,2S,4R)-4-((S)-1-Benzylcarbamoyl-2-methyl-propylcarbamoyl)-1-(4-benzyloxy-phenoxymethyl)-2-hydroxy-4-methoxy-butyl]-3-(methanesulfonyl-methyl-amino)-benzamide] showed an IC50 [1] of 4.6 µM.
In the case of `COCCCOc1cc(OC[C@H](N)[C@@H](O)C[C@@H](OC)C(=O)N[C@H](C(=O)NCc2ccc(Cl)cc2)C(C)C)ccc1-c1ccc(F)cc1` [Compound 20, (2R,4S,5S)-5-Amino-6-[4'-fluoro-2-(3-methoxy-propoxy)-biphenyl-4-yloxy]-4-hydroxy-2-methoxy-hexanoic acid [(S)-1-(4-chloro-benzylcarbamoyl)-2-methyl-propyl]-amide], the IC50 [1] is reported as 2.7 µM.
`CC[C@H](C)[C@H](NC(=O)[C@@H](C[C@H](O)[C@@H](N)COc1ccc(-c2ccc(F)cc2)cc1)OC)C(=O)NCc1ccc(Cl)cc1` [Compound 23, (2R,4S,5S)-5-Amino-6-(4'-fluoro-biphenyl-4-yloxy)-4-hydroxy-2-methoxy-hexanoic acid [(1S,2S)-1-(4-chloro-benzylcarbamoyl)-2-methyl-butyl]-amide] gave an IC50 [1] of over 10 µM.
Molecule `CC[C@H](C)[C@H](NC(=O)[C@@H](C[C@H](O)[C@H](COc1ccc(-c2ccccc2)c(OCCCOC)c1)NC(=O)c1cc(C(=O)N[C@H](C)c2ccccc2)cc(N(C)S(C)(=O)=O)c1)OC)C(=O)NCc1ccc(Cl)cc1` [Compound 25, N-{(1S,2S,4R)-4-[(1S,2S)-1-(4-Chloro-benzylcarbamoyl)-2-methyl-butylcarbamoyl]-2-hydroxy-4-methoxy-1-[2-(3-methoxypropoxy)-biphenyl-4-yloxymethyl]-butyl}-5-(methanesulfonyl-methyl-amino)-N'-((R)-1-phenyl-ethyl)-isophthalamide] has an IC50 [1] of 0.069 µM and an inhibition at 1 µM [2] of 3%.
`CC[C@H](C)[C@@H](CNc1ccc(Cl)cc1)NC(=O)[C@H](Cc1ccccc1)C[C@H](O)[C@@H](N)COc1ccc(-c2ccc(F)cc2)c(OCCCOC)c1` [Compound 28, (2R,4S,5S)-5-amino-2-benzyl-N-((2S,3S)-1-(4-chlorophenylamino)-3-methylpentan-2-yl)-6-(4'-fluoro-2-(3-methoxypropoxy)biphenyl-4-yloxy)-4-hydroxyhexanamide] was tested, and the IC50 [1] was 0.3 µM and the inhibition at 1 µM [2] was 14%.
In the case of `CC[C@H](C)[C@@H](CNc1ccc(Cl)cc1)NC(=O)[C@@H](C[C@H](O)[C@@H](N)COc1ccc(-c2ccc(F)cc2)c(OCCCOC)c1)C(C)C` [Compound 30, (2S,4S,5S)-5-amino-N-((2S,3S)-1-(4-chlorophenylamino)-3-methylpentan-2-yl)-6-(4'-fluoro-2-(3-methoxypropoxy)bi-phenyl-4-yloxy)-4-hydroxy-2-isopropylhexanamide], the IC50 [1] is reported as 0.54 µM and the inhibition at 1 µM [2] is reported as 28%.
